ChEMBL document CHEMBL5331092, “PROTACS: A technology with a gold rush-like atmosphere” (Eur J Med Chem, 2023)
Each block holds one molecule with its values, some of them ahead of it.

Tests used:
[1] = target: Protein cereblon/Focal adhesion kinase 1 (Homo sapiens) (UniProt Q05397+Q96SW2); test: Protac activity at CRBN E3 ligase/FAK (unknown origin) assessed as […] FAK degradation at 10 nM relative to control; assay type: protein assay; design: scale not given: the % may be the effect or the level left
Protein cereblon/Focal adhesion kinase 1 (Homo sapiens), sequence (Q05397 2-1052 limits assumed): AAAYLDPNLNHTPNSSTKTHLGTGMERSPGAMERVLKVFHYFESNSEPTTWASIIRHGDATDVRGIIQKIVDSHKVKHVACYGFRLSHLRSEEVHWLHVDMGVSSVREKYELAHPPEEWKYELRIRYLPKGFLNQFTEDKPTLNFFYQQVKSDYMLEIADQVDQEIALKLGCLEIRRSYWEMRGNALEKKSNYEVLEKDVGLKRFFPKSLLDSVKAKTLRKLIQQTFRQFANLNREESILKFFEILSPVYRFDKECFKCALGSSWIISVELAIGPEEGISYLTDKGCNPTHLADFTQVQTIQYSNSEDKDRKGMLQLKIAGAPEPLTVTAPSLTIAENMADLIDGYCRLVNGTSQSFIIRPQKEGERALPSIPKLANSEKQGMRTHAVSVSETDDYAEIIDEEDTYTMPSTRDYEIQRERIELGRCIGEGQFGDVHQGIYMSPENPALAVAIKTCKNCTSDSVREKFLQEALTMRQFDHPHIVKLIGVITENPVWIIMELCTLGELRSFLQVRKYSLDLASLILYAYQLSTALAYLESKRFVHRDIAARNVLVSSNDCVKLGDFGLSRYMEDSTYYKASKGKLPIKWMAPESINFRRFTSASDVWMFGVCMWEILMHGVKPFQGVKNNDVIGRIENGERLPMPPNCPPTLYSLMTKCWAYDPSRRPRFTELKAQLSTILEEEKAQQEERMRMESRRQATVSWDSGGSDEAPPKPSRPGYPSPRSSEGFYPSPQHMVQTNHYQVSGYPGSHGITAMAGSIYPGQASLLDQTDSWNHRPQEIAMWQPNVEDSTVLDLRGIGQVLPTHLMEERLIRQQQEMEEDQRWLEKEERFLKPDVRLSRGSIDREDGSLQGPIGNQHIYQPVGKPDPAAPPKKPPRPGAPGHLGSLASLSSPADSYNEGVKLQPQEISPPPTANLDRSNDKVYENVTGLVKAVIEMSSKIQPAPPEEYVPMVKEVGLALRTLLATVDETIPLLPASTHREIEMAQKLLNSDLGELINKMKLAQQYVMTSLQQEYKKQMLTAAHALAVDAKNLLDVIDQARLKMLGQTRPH
Protein cereblon/Focal adhesion kinase 1 (Homo sapiens), sequence (Q96SW2 whole entry partner): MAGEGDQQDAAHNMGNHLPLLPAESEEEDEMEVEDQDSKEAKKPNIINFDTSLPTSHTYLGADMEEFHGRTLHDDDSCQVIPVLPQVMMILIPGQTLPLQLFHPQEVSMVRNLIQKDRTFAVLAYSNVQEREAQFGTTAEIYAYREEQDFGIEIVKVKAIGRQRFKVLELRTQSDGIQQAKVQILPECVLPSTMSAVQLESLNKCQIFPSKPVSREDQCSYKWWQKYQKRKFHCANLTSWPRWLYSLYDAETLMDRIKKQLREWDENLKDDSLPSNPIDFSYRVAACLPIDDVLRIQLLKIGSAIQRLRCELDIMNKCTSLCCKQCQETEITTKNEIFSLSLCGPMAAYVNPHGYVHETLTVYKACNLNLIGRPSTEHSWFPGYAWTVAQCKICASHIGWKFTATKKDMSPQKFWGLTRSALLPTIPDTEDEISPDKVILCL

[2] = target: T1, Protein cereblon/Estrogen receptor (Homo sapiens, UniProt P03372+Q96SW2); test: Protac activity at CRBN E3 ligase/Estrogen receptor in human MCF7 cells assessed as induction of estrogen receptor degradation measured upto 24 hrs by ELISA method; assay type: cell-based
Target sequence in this assay (P03372 whole entry): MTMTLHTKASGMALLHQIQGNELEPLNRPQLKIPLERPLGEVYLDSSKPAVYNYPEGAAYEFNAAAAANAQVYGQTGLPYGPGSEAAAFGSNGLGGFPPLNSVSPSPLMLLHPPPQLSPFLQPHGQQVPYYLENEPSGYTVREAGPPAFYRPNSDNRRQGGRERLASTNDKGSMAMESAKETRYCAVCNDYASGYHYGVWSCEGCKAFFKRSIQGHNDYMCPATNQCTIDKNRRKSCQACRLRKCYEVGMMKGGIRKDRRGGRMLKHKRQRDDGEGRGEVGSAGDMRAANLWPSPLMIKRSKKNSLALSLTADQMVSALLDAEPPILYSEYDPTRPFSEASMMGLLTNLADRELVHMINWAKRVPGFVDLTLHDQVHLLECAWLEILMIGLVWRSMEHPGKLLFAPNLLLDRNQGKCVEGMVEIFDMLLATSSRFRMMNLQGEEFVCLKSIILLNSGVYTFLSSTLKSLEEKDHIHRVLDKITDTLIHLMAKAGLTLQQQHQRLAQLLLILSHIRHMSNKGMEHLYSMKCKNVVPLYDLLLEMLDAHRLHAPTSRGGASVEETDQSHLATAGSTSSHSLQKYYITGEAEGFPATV
Target sequence in this assay (Q96SW2 whole entry): as the sequence (Q96SW2 whole entry partner) above

[3] = target: T1, Protein cereblon/Estrogen receptor; test: Protac activity at CRBN E3 ligase/Estrogen receptor in human MCF7 cells assessed maximum degradation at 1.5 uM measured upto 24 hrs by ELISA method relative to control; assay type: cell-based
Target sequence in this assay (P03372 whole entry, looked up): as the sequence (P03372 whole entry) above
Target sequence in this assay (Q96SW2 whole entry, looked up): as the sequence (Q96SW2 whole entry partner) above

[4] = target: von Hippel-Lindau disease tumor suppressor/Androgen receptor (Homo sapiens) (UniProt P10275+P40337); test: PROTAC activity at VHL/AR in human VCaP cells assessed as maximum degradation at 5 nM relative to control; assay type: cell-based
von Hippel-Lindau disease tumor suppressor/Androgen receptor (Homo sapiens), sequence (P10275 whole entry, looked up): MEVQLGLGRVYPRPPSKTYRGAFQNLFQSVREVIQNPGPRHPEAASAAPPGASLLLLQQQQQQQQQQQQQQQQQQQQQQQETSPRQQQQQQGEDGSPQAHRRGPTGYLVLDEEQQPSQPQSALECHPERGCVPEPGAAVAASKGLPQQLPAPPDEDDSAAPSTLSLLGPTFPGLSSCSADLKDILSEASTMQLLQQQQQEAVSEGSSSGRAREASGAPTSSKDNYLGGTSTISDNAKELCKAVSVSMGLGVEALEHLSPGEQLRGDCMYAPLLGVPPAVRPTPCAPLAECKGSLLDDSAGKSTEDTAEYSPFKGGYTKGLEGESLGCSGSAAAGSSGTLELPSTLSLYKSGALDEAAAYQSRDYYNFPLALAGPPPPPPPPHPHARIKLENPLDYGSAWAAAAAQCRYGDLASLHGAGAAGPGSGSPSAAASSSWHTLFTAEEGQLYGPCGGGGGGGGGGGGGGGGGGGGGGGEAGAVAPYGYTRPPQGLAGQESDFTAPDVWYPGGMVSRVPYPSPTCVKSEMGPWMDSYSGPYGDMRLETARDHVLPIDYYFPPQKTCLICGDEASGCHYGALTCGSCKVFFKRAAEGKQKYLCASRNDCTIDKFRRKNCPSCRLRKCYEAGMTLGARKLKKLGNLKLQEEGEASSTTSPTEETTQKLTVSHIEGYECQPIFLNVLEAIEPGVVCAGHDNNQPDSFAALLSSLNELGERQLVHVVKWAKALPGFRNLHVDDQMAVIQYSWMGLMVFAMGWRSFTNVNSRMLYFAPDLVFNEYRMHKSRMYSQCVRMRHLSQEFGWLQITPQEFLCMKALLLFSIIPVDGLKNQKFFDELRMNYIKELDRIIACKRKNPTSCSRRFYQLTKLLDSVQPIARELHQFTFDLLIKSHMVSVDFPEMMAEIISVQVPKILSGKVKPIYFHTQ
von Hippel-Lindau disease tumor suppressor/Androgen receptor (Homo sapiens), sequence (P40337 whole entry, looked up): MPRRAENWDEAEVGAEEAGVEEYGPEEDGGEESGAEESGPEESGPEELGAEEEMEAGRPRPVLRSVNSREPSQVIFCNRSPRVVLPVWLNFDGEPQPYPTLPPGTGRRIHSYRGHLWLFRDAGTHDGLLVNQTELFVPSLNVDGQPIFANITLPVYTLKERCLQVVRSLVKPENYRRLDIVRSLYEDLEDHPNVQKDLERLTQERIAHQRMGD

[5] = target: T1, Protein cereblon/Estrogen receptor; test: Protac activity at CRBN E3 ligase/Estrogen receptor in human T47D cells assessed as induction of estrogen receptor degradation measured upto 24 hrs by ELISA method; assay type: cell-based
Target sequence in this assay (P03372 whole entry): as the sequence (P03372 whole entry) above
Target sequence in this assay (Q96SW2 whole entry): as the sequence (Q96SW2 whole entry partner) above

[6] = target: T1, Protein cereblon/Estrogen receptor; test: Protac activity at CRBN E3 ligase/Estrogen receptor in human T47D cells assessed maximum degradation at 1.5 uM measured upto 24 hrs by ELISA method relative to control; assay type: cell-based
Target sequence in this assay (P03372 whole entry, looked up): as the sequence (P03372 whole entry) above
Target sequence in this assay (Q96SW2 whole entry, looked up): as the sequence (Q96SW2 whole entry partner) above

[7] = target: Protein cereblon/Tyrosine-protein kinase BTK (Homo sapiens, UniProt Q06187+Q96SW2); test: PROTAC activity at CRBN/BTK in human TMD8 cells assessed as induction of BTK degradation incubated for 24 hrs by immunoblotting analysis; assay type: cell-based
Protein cereblon/Tyrosine-protein kinase BTK, sequence (Q06187 whole entry): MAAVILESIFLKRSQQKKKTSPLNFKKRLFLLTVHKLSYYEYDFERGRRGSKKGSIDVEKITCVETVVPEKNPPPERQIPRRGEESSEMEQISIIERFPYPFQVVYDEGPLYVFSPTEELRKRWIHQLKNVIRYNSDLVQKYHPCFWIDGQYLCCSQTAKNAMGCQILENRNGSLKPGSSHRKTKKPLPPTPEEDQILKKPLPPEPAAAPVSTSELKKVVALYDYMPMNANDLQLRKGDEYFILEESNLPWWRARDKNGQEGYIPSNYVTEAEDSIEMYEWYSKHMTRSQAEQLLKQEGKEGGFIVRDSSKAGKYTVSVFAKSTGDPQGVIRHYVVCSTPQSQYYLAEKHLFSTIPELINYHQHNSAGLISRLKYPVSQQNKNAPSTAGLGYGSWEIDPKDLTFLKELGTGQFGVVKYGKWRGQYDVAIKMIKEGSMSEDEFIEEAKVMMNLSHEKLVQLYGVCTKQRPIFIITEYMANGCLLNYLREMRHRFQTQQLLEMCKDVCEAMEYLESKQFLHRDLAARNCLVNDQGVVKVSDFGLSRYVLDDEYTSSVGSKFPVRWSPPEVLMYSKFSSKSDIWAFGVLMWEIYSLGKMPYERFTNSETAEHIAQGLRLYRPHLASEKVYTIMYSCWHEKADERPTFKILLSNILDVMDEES
Protein cereblon/Tyrosine-protein kinase BTK, sequence (Q96SW2 whole entry): as the sequence (Q96SW2 whole entry partner) above

SMILES: Cc1ncsc1-c1ccc([C@H](C)NC(=O)C2C[C@@H](O)CN2C(=O)[C@@H](NC(=O)CCCCOc2ccc(CCNC(=O)c3ccc(C(=O)c4c(-c5ccc(O)cc5)sc5cc(O)ccc45)cc3)cc2)C(C)(C)C)cc1 (some centres undefined)
EC50 [2]: 1.1 nM | Emax [3]: 98%

SMILES: Cc1ncsc1-c1ccc(CNC(=O)C2C[C@@H](O)CN2C(=O)C(NC(=O)COCCCCOc2ccc(-c3ccc(N4C(=S)N(c5ccc(C#N)c(C(F)(F)F)c5)C(=O)C4(C)C)cc3)cc2)C(C)(C)C)cc1 (some centres undefined)
Emax [4]: 95%

SMILES: Cc1ncsc1-c1ccc([C@H](C)NC(=O)C2C[C@@H](O)CN2C(=O)[C@@H](NC(=O)CCCCOc2ccc(/C=N/NC(=O)c3ccc(C(=O)c4c(-c5ccc(O)cc5)sc5cc(O)ccc45)cc3)cc2)C(C)(C)C)cc1 (some centres undefined)
EC50 [5]: 10 nM | Emax [6]: > 95% | EC50 [2]: 10 nM | Emax [3]: > 95%

Now from value to molecule:

Activity [1]: 90%
SMILES: CN(c1ncccc1CNc1nc(Nc2ccc(NC(=O)c3cn(CCOCCOCCNc4cccc5c4C(=O)N(C4CCC(=O)NC4=O)C5=O)nn3)cc2)ncc1C(F)(F)F)S(C)(=O)=O (centres undefined)

EC50 [7]: 4 nM
SMILES: Cc1cccc(C)c1Nc1nn(C)c2nc(Nc3ccc4c(c3)CN(CC3CCN(c5ccc6c(c5)C(=O)N(C5CCC(=O)NC5=O)C6=O)CC3)CC4)ncc12 (centres undefined)
